In US9168247B2, “Beta carboline derivatives useful in the treatment of proliferative disorders” (FACULTES UNIVERSITAIRES NOTRE DAME DE LA PAIX, priority 2010, dated 2015):
Like-named read-outs stand apart in the source and are kept apart here.

What was measured:
[1] = system: U373 glioma cells; assay: MTT test, overall cell growth, U373; format: cell-based, human; conditions: 72 hours of incubation
Procedure: (§1) MTT tests were performed in order to rapidly, i.e., within 5 days, measure the effect of the present compounds on the overall cell growth. The test measured the number of metabolically active living cells that were able to transform the yellow product 3-(4,5-dimethylthiazol-2-yl)-2,5-diphenyl tetrazolium bromide (herein referred as MTT) into the blue product formazan dye by mitochondrial reduction. The amount of formazan obtained at the end of the experiment, measured by means of a spectrophotometer, is directly proportional to the number of living cells. Optical density determination thus enabled a quantitative measurement of the effect of the investigated compounds as compared to the control condition (untreated cells) and/or to other reference compounds.
(§2) Five human cancer cell lines set forth in Table 3 were used in the MTT tests. These cancer cell lines cover two histological cancer types including glioma (Hs683, T98G, U373), and oesophageal (OE21, OE33) cancers. The U373 cell line is apoptosis-resistant but autophagy-sensitive.
(§3) To perform the assay, cells were allowed to grow in 96-well micro-wells with a flat bottom with an amount of 100 μl of cell suspension per well with 5,000 to 8,000 cells/well depending on the cell type used. Each cell line was seeded in its appropriate culture medium.
(§4) The detailed experimental procedure was as follows: after a 24-hour period of incubation at 37° C., the culture medium was replaced by 100 μl of fresh medium in which the tested compound was previously dissolved, at the following molar concentrations: 1×10^−8 M, 5×10^−8 M, 1×10^−7 M, 5×10^−7 M, 1×10^−6 M, 5×10^−6 M, 1×10^−5 M, 5×10^−5 M and 1×10^−4 M. Each experiment was performed in sestuplicate (6 times).
(§5) After 72 hours of incubation at 37° C. with (experimental conditions) or without (control condition) the compound to be tested, the medium was replaced by 100 μl MTT dissolved in RPMI (1640 without phenol red) at a concentration of 0.5 or 1 mg/ml. The micro-wells were subsequently incubated during 3 hours and a half at 37° C. and centrifuged at 1300 rpm during 10 minutes. MTT was removed and formazan crystals formed were dissolved in […]. The micro-wells were shaken for 5 minutes and read on a spectrophotometer at wavelengths of 570 nm (maximal formazan absorbance).
(§6) For each experimental condition, the mean optical density was calculated, allowing the determination of the percentage of remaining living cells in comparison to the control.
(§7) The origin of all the cell lines we used, along with their biological characteristics, and the validation procedures of the MTT colorimetric assay as employed here are fully detailed in Van Quaquebeke et al., 2005, J Med Chem 48:849-856; Ingrassia et al., 2009, J Med Chem 52:1100-1114; Mathieu et al., 2009, J Cell Mol Med, Feb. 20, 2009.

[2] = system: T98G glioma cells; assay: MTT test, overall cell growth, T98G; format: cell-based, human; conditions: 72 hours of incubation
Procedure: as §1, §2, §3, §4, §5, §6, §7

[3] = system: Hs683 glioma cells; assay: MTT test, overall cell growth, Hs683; format: cell-based, human
Procedure: as §1, §2, §3, §4, §5, §6, §7

[4] = system: OE21 oesophageal cancer cells; assay: MTT test, overall cell growth, OE21; format: cell-based, human
Procedure: as §1, §2, §3, §4, §5, §6, §7

[5] = system: OE33 oesophageal cancer cells; assay: MTT test, overall cell growth, OE33; format: cell-based, human
Procedure: as §1, §2, §3, §4, §5, §6, §7

[6] = system: human cancer cell lines (U373, T98G, Hs683, OE21, OE33); assay: MTT test, mean over the cancer cell lines; format: cell-based
Procedure: as §1, §2, §3, §4, §5, §6, §7

[7] = system: U373 cells; assay: Cellular imaging (videomicroscopy) of cultured U373 cells: antiproliferative class and global growth ratio; format: cell-based, human; design: key to Anti proliferative class / anti-proliferative class-GGR: class I: actually cytostatic for 3 days (<10% of cell death at the 3rd day); class II: cyctostatic but becomes cytotoxic with <10% cell death on the 2nd day, and >20% of cell death on the 3rd day; class III: cytostatic but rapidly becomes cytotoxic with <10% cell death on the 1st day, >20% of cell death on the 2nd day and >50% of cell death on the 3rd day; class IV: cytotoxic (>50% of cell death on the first day); conditions: for global growth ratio (GGR): GG treated cells/GG control cells, 72 h after drug addition, drug at its IC50 (MTT-test determined); for Anti proliferative class: cellular imaging of cultured U373 cells over three consecutive days
Description: The effects of the di- and tri-substituted beta-carboline derivatives as described herein can also be determined on cell proliferation, migration and morphology by means of a cellular imaging approach (Debeir et al., Cytometry 60:29-40, 2004; Debeir et al., IEEE Trans Med Imaging 24:697-711, 2005) either in, e.g., the human U373-MG glioma cell line, which is apoptosis-resistant but autophagy-sensitive (Lefranc F et al., Neurosurgery 2008) or in, e.g., the human A549 non-small-cell-lung cancer cell line, which is apoptosis-resistant and autophagy-resistant (Mijatovic T et al., Neoplasia 2006, May; 8(5):402-12).
[…] The experiments are conducted in quadruplicates.
The behaviour of the cells, in terms of morphology, growth and death are thus investigated. The effect on the overall growth is measured by counting the number of cells on the first (0 h) and the last image (72 h) of each film. The global growth ratio (GGR) is then deduced by dividing the number of cells on the last image by the number of cells on the first image. The ratio GGRtreated cells/GGRcontrol cells is further calculated thereby providing a value that describes the effect of compounds of the present invention on the overall cell growth.
The methodology is fully described and validated in Debeir et al., 2008, Exp Cell Res 314:2985-2998 and Mathieu et al., 2009, J Cell Mol Med, Feb. 20, 2009.

[8] = Homo sapiens, Hs 683, 72 hours of incubation
[9] = Homo sapiens, OE21, 72 hours of incubation
[10] = Homo sapiens, OE33, 72 hours of incubation
[11] = Homo sapiens, mean over the cancer cell lines, MTT test, read-out: IC50 Mean ± SEM
[12] = mean over the cancer cell lines, MTT test, read-out: IC50 Mean ± SEM
[13] = Homo sapiens, Glioma cell, MTT assay, submicromolar range, e.g. as low as, read-out: mean anti-proliferative effect on the glioma cell lines

Structure (SMILES) | IC50 ([1]; Homo sapiens, U373 MG) [µM] | IC50 ([2]; Homo sapiens, T98G) [µM] | IC50 [3, 8] [µM] | IC50 [4, 9] [µM] | IC50 [5, 10] [µM] | IC50 [6, 11] [µM] | global growth ratio (GGR) [7] | Anti proliferative class [7] | IC50 [1] [µM] | IC50 [2] [µM] | IC50 ([3]; 72 hours of incubation) [µM] | IC50 ([4]; 72 hours of incubation) [µM] | IC50 ([5]; 72 hours of incubation) [µM] | IC50 [6, 12] [µM] | IC50 [6, 13] [µM] | melting point [°C]
Cc1c2c(cc[n+]1Cc1ccc(F)cc1)c1ccc(OCC3CCCCC3)cc1n2CC1CCCCC1.[Br-] [CV30, 1-methyl-2-(4-fluorobenzyl)-7-cyclohexylmethyloxy-9-cyclohexylmethyl-β-carbolin-2-ium bromide] | 0.04 ± 0.01 | 2 ± 0.6 | 3.1 ± 0.3 | 1.4 ± 0.2 | 1 ± 0.1 | 1.6 ± 0.4 | 0.8 | I (class I: actually cytostatic for 3 days (<10% of cell death at the 3rd day)) |  |  |  |  |  |  |  | 
Cc1nccc2c1[nH]c1cc(OCC(C)C)ccc12 [JR221] |  |  |  |  |  |  | 0.1 | IV (class IV: cytotoxic (>50% of cell death on the first day)) | 24 ± 1 | 22 ± 3 | 23 ± 1 | 12 ± 3 | 25 ± 1 | 22 ± 3 |  | 
Cc1c2c(cc[n+]1Cc1ccccc1F)c1ccc(OCC3CCCCC3)cc1n2CC1CCCCC1.[Br-] [CV26, 1-methyl-2-(2-fluorobenzyl)-7-cyclohexylmethyloxy-9-cyclohexylmethyl-β-carbolin-2-ium bromide] | 1.42 ± 0.08 | 0.07 ± 0.008 | 0.25 ± 0.02 | 0.35 ± 0.01 | 0.35 ± 0.02 | 0.5 ± 0.2 | 0.2 | I (class I: actually cytostatic for 3 days (<10% of cell death at the 3rd day)) |  |  |  |  |  |  | 0.34 to 0.8 | 
CCCn1c2cc(OCc3ccccc3)ccc2c2cc[n+](Cc3ccccc3)c(C)c21.[Br-] [CV34, 1-methyl-2-benzyl-7-benzyloxy-9-propyl-β-carbolin-2-ium bromide] | 0.41 ± 0.03 | 1.7 ± 0.5 | 2.6 ± 0.2 | 0.57 ± 0.08 | 0.3 ± 0.05 | 1.1 ± 0.4 | 0.3 | III |  |  |  |  |  |  |  | 
Cc1nccc2c1[nH]c1cc(OCC3CCCCC3)ccc12 [JR167] |  |  |  |  |  |  | 0.1 | IV (class IV: cytotoxic (>50% of cell death on the first day)) | 7.48 ± 0.07 | 7.2 ± 0.2 | 22 ± 2 | 8.3 ± 0.2 | 8.1 ± 0.2 | 11 ± 3 |  | 
Cc1nccc2c1[nH]c1cc(OCc3ccccn3)ccc12 [JR169] |  |  |  |  |  |  | 0.4 | I (class I: actually cytostatic for 3 days (<10% of cell death at the 3rd day)) | 21.3 ± 0.8 | 20 ± 2 | 20 ± 1 | 16 ± 3 | 23 ± 3 | 20 ± 1 |  | 
Cc1nccc2c3ccc(OCCC(C)C)cc3n(CCC(C)C)c12 [PL3, 1-methyl-7-(3-methylbutyloxy)-9-(3-methylbutyl)-β-carboline] |  |  |  |  |  |  |  |  |  |  |  |  |  |  |  | 106.4
Cc1c2c(cc[n+]1Cc1ccccc1)c1ccc(OCc3ccc(F)cc3)cc1n2Cc1ccc(F)cc1.[Br-] [CV23, 1-methyl-2-benzyl-7-(4-fluorobenzyl)oxy-9-(4-fluorobenzyl)-β-carbolin-2-ium bromide] | 0.43 ± 0.07 | 0.4 ± 0.04 | 0.9 ± 0.1 | 0.5 ± 0.09 | 1.4 ± 0.1 | 0.8 ± 0.2 | 0.3 | I (class I: actually cytostatic for 3 days (<10% of cell death at the 3rd day)) |  |  |  |  |  |  | 0.34 to 0.8 | 
Cc1c2c(cc[n+]1Cc1ccccc1F)c1ccc(OCc3ccccc3)cc1n2Cc1ccccc1.[Br-] [CV18, 1-methyl-2-(2-fluorobenzyl)-7-benzyloxy-9-benzyl-β-carbolin-2-ium bromide] | 0.5 ± 0.2 | 0.37 ± 0.01 | 0.44 ± 0.04 | 0.38 ± 0.02 | 0.7 ± 0.08 | 0.48 ± 0.06 | 0.3 | I (class I: actually cytostatic for 3 days (<10% of cell death at the 3rd day)) |  |  |  |  |  |  | 0.34 to 0.8 | 
Cc1nccc2c1[nH]c1cc(OCCCC(F)(F)F)ccc12 [JR110] |  |  |  |  |  |  | 0.2 | IV (class IV: cytotoxic (>50% of cell death on the first day)) | > 100 | 86 ± 11 | > 100 | > 100 | > 100 | > 97 |  | 
